US20260284208A1, “SYSTEM” (Oxford University Innovation Limited, priority 2023, published 2026)

System: library of 8,380 IKZF3 degrons (ZF-eGFP/mCherry reporter) in Jurkat cells
Assay: Pooled library screen (FACS, NGS, limma voom LogFC of positive vs negative read counts)
Assay type: cell-based, human
Protocol: A library of 8,380 IKZF3 degrons was cloned into pLVX-Sprout to create the eGFP/mCherry protein degradation reporter plasmid pool. A lentivirus pool was then generated using the Lenti-X lentiviral vector production method.
Jurkat cells were transduced at a multiplicity of infection of <0.3 with the lentivirus vector library in order to maximise the number of cells with a single integration. Transductions were carried out in 6 well TC-treated cell culture dishes (Falcon) with 3×10^6 cells per well. Cells were incubated for 2 days at 37° C. and 5% CO2 before the supernatant was removed and replaced with fresh media. 6 days post-transduction, mCherry+ cells were isolated via FACS using the FACS Aria Fusion (BD) in a buffer containing PBS (Gibco), 2 mM EDTA (Gibco), 25 mM HEPES (Sigma) and 1% BSA (Sigma). 8 days later, cells were treated with DMSO or a thalidomide analog for 18 hours at 37° C. and 5% CO2. mCherry+GFPlow and NOT(mCherry+GFPlow) cells were sorted by FACS using the FACS Aria Fusion (BD). DMSO treated cells were used to set the mCherry+GFPlow gate and dead cells were excluded from sorting by staining cells with 1 μg/mL DAPI (ThermoFisher). gDNA was isolated using the Maxwell RSC 48 (Promega). gDNA from cells that were unsorted and untreated were also isolated to determine the library representation on the day of compound treatment. Throughout the screen >600× coverage of the library was maintained. 3 biological replicates were carried out with a new transduction taking place each time.
A two-step PCR was used where the first PCR (PCR1) amplified the integrated degron sequence from gDNA and the second PCR (PCR2) added Illumina adaptors and barcodes to permit multiplexing. See Supp F for PCR1 and PCR2 primers. Q5 Hot Start High-Fidelity 2× Master Mix (New England Biolabs) was used for both PCRs. Sufficient gDNA was amplified in PCR1 in order to maintain >600× coverage and amplicons were purified using solid phase reversible immobilization (SPRI) beads (Beckman Coulter). Purified PCR1 products were analysed on the Tapestation 4200 (Agilent) to confirm purity prior to proceeding to PCR2. Sufficient PCR1 product was amplified in PCR2 in order to maintain >600× coverage and amplicons were run on a 2% agarose TAE gel. Target bands were excised and purified using the NucleoSpin Gel and PCR Clean-up Kit (Machery Nagel). Amplicons were analysed on the Tapestation 4200 and quantified using Qubit dsDNA HS kit (ThermoFisher). PCR products were pooled and sequenced as paired-reads on the NovaSeq (Illumina) using a SP2 200 cycles kit (Illumina).
Count distributions, percentage of read mapping, library coverage and replicate correlation per sample were assessed for QC purposes.
To carry out the library screen, we used the same plasmid construct as in our earlier flow cytometry assays, but pooling all 8,380 mutants together into one Jurkat population, ensuring a copy number of one plasmid per cell (FIG. 4B). […] These GFP-negative cells were then separated from the remaining GFP-positive population using fluorescence activated cell sorting (FACS). These two populations were then sequenced and the relative abundance of every mutant in both populations compared to provide a log FC value for each mutant sequence. This value indicated how frequently a sequence is observed in the GFP-negative population relative to the GFP-positive population, and therefore how effective a degron it is for that particular IMID compound.

## O=C1CCC(N2C(=O)c3ccc(N4CCOCC4)cc3C2=O)C(=O)N1 (centres unmarked) [B03]
Degron-ID 115, SEQ ID NO 3968, 46F_47A_49E_50V_52G_53A_54S_55F_67L
  B03_logFC: 2.732
Degron-ID 120, SEQ ID NO 4031, 46F_47A_49N_50I_52G_53A_54A_55F_67L
  B03_logFC: 2.638
Degron-ID 315, SEQ ID NO 3989, 46F_47C_49E_50I_52G_53A_54S_55F_67L
  B03_logFC: 2.703
Degron-ID 372, SEQ ID NO 3966, 46F_47C_49N_50I_52G_53A_54P_55F_67L
  B03_logFC: 2.733
Degron-ID 433, SEQ ID NO 4021, 46F_47C_49P_50I_52G_53A_54Q_55F_67L
  B03_logFC: 2.656
Degron-ID 434, SEQ ID NO 3957, 46F_47C_49P_50I_52G_53A_54R_55F_67L
  B03_logFC: 2.746
Degron-ID 435, SEQ ID NO 3984, 46F_47C_49P_50I_52G_53A_54S_55F_67L
  B03_logFC: 2.71
Degron-ID 977, SEQ ID NO 4017, 46F_47F_49D_50I_52G_53A_54V_55F_67L
  B03_logFC: 2.662
Degron-ID 1011, SEQ ID NO 3988, 46F_47F_49D_50V_52G_53A_54N_55F_67L
  B03_logFC: 2.704
Degron-ID 1015, SEQ ID NO 3971, 46F_47F_49D_50V_52G_53A_54S_55F_67L
  B03_logFC: 2.728
Degron-ID 1065, SEQ ID NO 3981, 46F_47F_49E_50V_52G_53A_54G_55F_67L
  B03_logFC: 2.716
Degron-ID 1080, SEQ ID NO 4003, 46F_47F_49N_50I_52G_53A_54A_55F_67L
  B03_logFC: 2.68
Degron-ID 1081, SEQ ID NO 4001, 46F_47F_49N_50I_52G_53A_54C_55F_67L
  B03_logFC: 2.686
Degron-ID 1097, SEQ ID NO 3956, 46F_47F_49N_50I_52G_53A_54V_55F_67L
  B03_logFC: 2.747
Degron-ID 1183, SEQ ID NO 4013, 46F_47F_49P_50V_52G_53A_54E_55F_67L
  B03_logFC: 2.668
Degron-ID 1188, SEQ ID NO 4025, 46F_47F_49P_50V_52G_53A_54K_55F_67L
  B03_logFC: 2.644
Degron-ID 1197, SEQ ID NO 3982, 46F_47F_49P_50V_52G_53A_54V_55F_67L
  B03_logFC: 2.716
Degron-ID 1267, SEQ ID NO 3977, 46F_47G_49E_50I_52G_53A_54I_55F_67L
  B03_logFC: 2.719
Degron-ID 1273, SEQ ID NO 4024, 46F_47G_49E_50I_52G_53A_54Q_55F_67L
  B03_logFC: 2.644
Degron-ID 1314, SEQ ID NO 3964, 46F_47G_49E_50V_52G_53A_54R_55F_67L
  B03_logFC: 2.737
Degron-ID 1393, SEQ ID NO 4023, 46F_47G_49P_50I_52G_53A_54Q_55F_67L
  B03_logFC: 2.648
Degron-ID 1433, SEQ ID NO 4022, 46F_47G_49P_50V_52G_53A_54Q_55F_67L
  B03_logFC: 2.653
Degron-ID 1513, SEQ ID NO 4030, 46F_47H_49E_50I_52G_53A_54Q_55F_67L
  B03_logFC: 2.639
Degron-ID 1515, SEQ ID NO 4006, 46F_47H_49E_50I_52G_53A_54S_55F_67L
  B03_logFC: 2.675
Degron-ID 1555, SEQ ID NO 4029, 46F_47H_49E_50V_52G_53A_54S_55F_67L
  B03_logFC: 2.639
Degron-ID 1621, SEQ ID NO 4027, 46F_47H_49P_50I_52G_53A_54C_55F_67L
  B03_logFC: 2.643
Degron-ID 1751, SEQ ID NO 3952, 46F_47I_49E_50I_52G_53A_54N_55F_67L
  B03_logFC: 2.753
Degron-ID 1754, SEQ ID NO 4020, 46F_47I_49E_50I_52G_53A_54R_55F_67L
  B03_logFC: 2.656
Degron-ID 1755, SEQ ID NO 3970, 46F_47I_49E_50I_52G_53A_54S_55F_67L
  B03_logFC: 2.728
Degron-ID 1785, SEQ ID NO 4016, 46F_47I_49E_50V_52G_53A_54G_55F_67L
  B03_logFC: 2.664
Degron-ID 1865, SEQ ID NO 4014, 46F_47I_49P_50I_52G_53A_54G_55F_67L
  B03_logFC: 2.667
Degron-ID 1871, SEQ ID NO 3960, 46F_47I_49P_50I_52G_53A_54N_55F_67L
  B03_logFC: 2.742
Degron-ID 1913, SEQ ID NO 3962, 46F_47I_49P_50V_52G_53A_54Q_55F_67L
  B03_logFC: 2.739
Degron-ID 1915, SEQ ID NO 3965, 46F_47I_49P_50V_52G_53A_54S_55F_67L
  B03_logFC: 2.736
Degron-ID 2392, SEQ ID NO 4011, 46F_47L_49P_50V_52G_53A_54P_55F_67L
  B03_logFC: 2.671
Degron-ID 2957, SEQ ID NO 3986, 46F_47Q_49E_50I_52G_53A_54V_55F_67L
  B03_logFC: 2.708
Degron-ID 2981, SEQ ID NO 4000, 46F_47Q_49E_50V_52G_53A_54C_55F_67L
  B03_logFC: 2.687
Degron-ID 2996, SEQ ID NO 4026, 46F_47Q_49E_50V_52G_53A_54T_55F_67L
  B03_logFC: 2.643
Degron-ID 2997, SEQ ID NO 3951, 46F_47Q_49E_50V_52G_53A_54V_55F_67L
  B03_logFC: 2.756
Degron-ID 3073, SEQ ID NO 3979, 46F_47Q_49P_50I_52G_53A_54Q_55F_67L
  B03_logFC: 2.718
Degron-ID 3076, SEQ ID NO 3959, 46F_47Q_49P_50I_52G_53A_54T_55F_67L
  B03_logFC: 2.742
Degron-ID 3115, SEQ ID NO 3978, 46F_47Q_49P_50V_52G_53A_54S_55F_67L
  B03_logFC: 2.718
Degron-ID 3432, SEQ ID NO 3998, 46F_47S_49E_50I_52G_53A_54P_55F_67L
  B03_logFC: 2.688
Degron-ID 3540, SEQ ID NO 3999, 46F_47S_49P_50I_52G_53A_54A_55F_67L
  B03_logFC: 2.688
Degron-ID 3791, SEQ ID NO 4035, 46F_47T_49P_50I_52G_53A_54N_55F_67L
  B03_logFC: 2.632
Degron-ID 3833, SEQ ID NO 4034, 46F_47T_49P_50V_52G_53A_54Q_55F_67L
  B03_logFC: 2.635
Degron-ID 3835, SEQ ID NO 3974, 46F_47T_49P_50V_52G_53A_54S_55F_67L
  B03_logFC: 2.722
Degron-ID 3953, SEQ ID NO 3961, 46F_47V_49E_50V_52G_53A_54Q_55F_67L
  B03_logFC: 2.742
Degron-ID 4065, SEQ ID NO 4015, 46F_47V_49P_50V_52G_53A_54G_55F_67L
  B03_logFC: 2.665
Degron-ID 4087, SEQ ID NO 3963, 46F_47W_49D_50I_52G_53A_54I_55F_67L
  B03_logFC: 2.738
